Test results from patent US20260035750A1, “TRANSCRIPTIONAL REGULATORS OF THE TEAD FAMILY” (Sanofi, priority 2022, published 2026).
“Also recorded” adds a separate entry of the source.

How the values were obtained:
CYR61 = CYR61 (CCN1) marker of TEAD activity, RNA and protein (ELISA) level, in NCI-H226 cells; format: cell-based, human; conditions: NCI-H226 cells in vitro, treated for 24 hours
Description: The latter protein markers were measured by ELISA assays. Cell lysates were diluted 1/500 in cell lysis buffer. A minimum of four biologic replicates were analyzed for each model. In the reading plate, standards and samples are run in duplicate. hCYR61 was assessed using the human Cyr61 Quantikine™ Colorimetric Sandwich ELISA Kit (R&D Systems, Minneapolis, MN). Diluted lysates were processed and analyzed as described in the manufacturer's instructions. Absorbance values were read using a microplate reader set to 450 nm.
So did the RNA and protein levels of the classical secreted marker of Hippo pathway activity, CYR61 (FIG. 3C).

TEAD = experiment: TEAD-500 score (TEAD-dependent transcription) in NCI-H226 cells grown in vitro; format: cell-based, human; conditions: NCI-H226 malignant mesothelioma cells in vitro, treated for 24 hours
Source text: (§1) TEAD-dependent transcription was scored in single samples as the difference Rp-Rn, where Rp is the mean fractional rank of the positive TEAD-effectors, and Rn, that of the negative effectors.
We considered the most abundant transcript of a gene as the representative of the expression of the gene. We, therefore, retain the expression level of the major transcript (maximum level-value per gene and sample, level values may be expression-array signals, RNA sequencing counts, fragments per kilobase per million counts (FPKM), transcripts per million (TPM), or whatever other metric is conveniently used) and discarded the values of all other transcripts. The maximum expression levels of the genes were transformed into fractional ranks by dividing with the maximum expression value of all genes (most abundant gene) observed within a sample. No other normalization is required.
All cell lines were grown at 37° C. under five percent CO2. MSTO-211H (#CRL-2081), NCI-H226 (#CRL-5826), NCI-H2052 (#CRL-5915), NCI-H28 (#CRL-5820), and HCT116 (#CCL-247) were purchased from the American Type Culture Collection (ATCC, Manassas, VA, USA) and cultured according to supplier's recommendation. […]
Fresh tumors were preserved in RNAlater (Thermo Fisher) and frozen at […]. […] The RNA concentration and purity were evaluated with an ND-1000 spectrophotometer (NanoDrop, Thermo Fisher). […]

NCI-H226 cells = experiment: In vivo efficacy in subcutaneous NCI-H226 xenografts in SCID mice; conditions: NCI-H226 xenograft
Description: Female CB17/Icr-Prkdc^scid/IcrIcoCrl mice (6-8 weeks old) were bred at Charles River (Les Oncins, France), housed in Sanofi AAALAC accredited animal facilities, and were provided with irradiated food and filtered water ad libitum.
(§2) In vivo efficacy studies of the K-975 compound were performed in SCID mice inoculated subcutaneously into the right flank with 3×10^6 MSTO-211H or NCI-H226 cells. Mice bearing around 200 mm3 subcutaneous MSTO-211H tumors or 150 mm3 subcutaneous NCI-H226 tumors were randomly assigned to […] of 8 mice/group and treated with either vehicle or K-975 compound twice daily at 30, 100, and 200 mg/kg for 18 consecutive days. Tumor perpendicular diameters were measured twice a week with a caliper, and tumor volume (V) was calculated according to the following equation: V (mm3)=(d2 (mm2)×D (mm))/2, where d is the smallest, and D the largest perpendicular tumor diameters.
The same type of events was observed when SCID mice implanted with malignant mesothelioma parental NCI-H226 cells were treated with 200 mg/kg BID of the benchmark TEAD-inhibitor K-975 (Kaneda A et al. Am J Cancer Res. 2020; 10(12):4399-4415) for 17 consecutive days (FIG. 5). […] The TEAD-500 score correlates, therefore, with tumor behavior under treatment and can be used as a marker of the pharmacodynamics or efficacy of a drug.

[1] = system: TEAD-dependent transcription; experiment: TEAD-500 score as pharmacodynamic marker in NCI-H226 xenograft tumors; format: in vivo; conditions: SCID mice, 200 mg/kg BID, in 24 h, sufficient for tumor regression
Description: as §1, §2
Fresh tumors were preserved in RNAlater (Thermo Fisher) and frozen at […]. Copurification of miRNA and total RNA was performed using a miRNeasy Mini Kit (QIAGEN, 217004). The RNA concentration and purity were evaluated with an ND-1000 spectrophotometer (NanoDrop, Thermo Fisher). Quality metrics are the RNA Integrity Number (RIN) and DV200 value (% of RNA fragments with a length≥200 nt). 100 ng total RNA per sample was used as input material for the library preparation. […]

Compound: C=CC(=O)Nc1ccc(C)c(Oc2ccc(Cl)cc2)c1 [K-975]
- RNA level of CYR61 (CCN1) (CYR61): inhibition; also recorded: regressed in a dose-dependent manner
- protein level of CYR61 (CCN1) (CYR61): inhibition; also recorded: regressed in a dose-dependent manner
- TEAD-500 score (TEAD): Dose-dependent regression; also recorded: regressed in a dose-dependent manner
- tumor behavior under treatment (NCI-H226 cells; 30 mg/kg BID): inactive
- tumor behavior under treatment (NCI-H226 cells; 100 mg/kg BID): almost tumor stasis
- ΔT/ΔC (NCI-H226 cells; 100 mg/kg BID): 12
- tumor behavior under treatment (NCI-H226 cells; 200 mg/kg BID, 17 consecutive days): tumor regression
- inhibition of the TEAD-dependent transcription (TEAD-500 score) [1]: 30-40%
